Laboratory results from US5312919A, “Photooxidation products and derivatives thereof of merocyanine-540, their preparation and uses” (priority 1992, dated 1994).
Where two headings read alike, the source gives them in different places.

What was measured:
[1] = tested on: human Burkitt lymphoma Daudi cells; experiment: Cytotoxic effects on human Burkitt lymphoma Daudi cells (MTT assay); format: cell-based
Protocol: Human Burkitt Lymphoma Daudi cells (1×10^6 cells/ml) were treated with different concentrations of Merodantoin. After overnight incubation at 37° C., the tumor cells kill was determined by MTT assay.
Human Burkitt Lymphoma Daudi cells (1×10^6 cells/ml) were treated with different concentrations of Merocil. After overnight incubation at 37° C., the tumor cells kill was determined by MTT assay.
Each cell type (1×10^6 cells/ml; in triplicate) was treated with indicated concentrations of Merocil or Merodantoin. After overnight (20 hr.) or 5 day incubation periods, the cell viability was determined by MTT assay and calculated as a percentage of untreated controls.

[2] = tested on: L1210 mouse leukemia cells; experiment: Combined effect on L1210 mouse leukemia cells (MTT assay); details: MC = 12.5 μg/ml; MD = 25 μg/ml; MZ = 25 μg/ml; overnight
Protocol: The biological activities of the photooxidation products of MC 540 were determined. Preactivated MC 540 is abbreviated as pMC 540. Assays of antitumor activities of the products were carried out according to published standard methods.
Mouse leukemia L1210 cells (1 × 10^6 cells/ml) were treated wit
different combinations of the indicated compounds (isolated from
preactivated merocyanine 540). After overnight incubation the cell kill

[3] = Cytotoxicity on normal human peripheral blood mononuclear cells (trypan blue dye exclusion); format: cell-based; details: human, peripheral blood mononuclear cells, overnight, 37° C., read-out: % cell kill (mean ± S.E.M.)
Protocol: (§1) Preactivated MC 540 is abbreviated as pMC 540.
(§2) Merocil and Merodantoin were dissolved in cremophor EL whereas pMC 540 was prepared in 10% aqueous ethanol. […] Fresh human peripheral mononucleas cells (1×10^6 cells/ml) were treated with indicated concentration of compounds. After overnight incubation at 37° C., cell viability was determined by trypan blue dye exclusion method.

[4] = tested on: normal human peripheral blood mononuclear cells; experiment: as above; format: cell-based; details: doses of Table 1
Protocol: as §1, §2

[5] = tested on: C-33A (carcinoma cervix, human); experiment: Inhibition of cell proliferation, C-33A (MTT assay); format: cell-based; details: read-out: % inhibition of cell proliferation
Protocol: (§3) Preactivated MC 540 is abbreviated as pMC 540. […] 52: 831-38 (1990); and T. Mosmann, J. Immulog. Methods 65: 55-63 (1983).
(§4) Each cell type (1×10^6 cells/ml; in triplicate) was treated with indicated concentrations of merocil or merodantoin. After overnight (20 hr.) or 5 day incubation periods, the cell viability was determined by MTT assay and calculated as a percentage of untreated controls. The toxicity in vehicle only (cremophor EL) controls was not detectable at highest dose tested.

[6] = tested on: DU 145 (prostate, carcinoma, human); experiment: Inhibition of cell proliferation, DU 145 (MTT assay); format: cell-based; details: read-out: % inhibition of cell proliferation
Protocol: as §3, §4

[7] = tested on: MS 751 (cervix, carcinoma, human); experiment: Inhibition of cell proliferation, MS 751 (MTT assay); format: cell-based; details: read-out: % inhibition of cell proliferation
Protocol: as §3, §4

[8] = tested on: JEG-3 (choriocarcinoma, human); experiment: Inhibition of cell proliferation, JEG-3 (MTT assay); format: cell-based; details: read-out: % inhibition of cell proliferation
Protocol: as §3, §4

[9] = tested on: BT-20 (breast, adenocarcinoma); experiment: Inhibition of cell proliferation, BT-20 (MTT assay); format: cell-based; details: Homo sapiens, read-out: % inhibition of cell proliferation
Text: Preactivated MC 540 is abbreviated as pMC 540. […] 52: 831-38 (1990); and T. Mosmann, J. Immulog. Methods 65: 55-63 (1983). […]

[10] = tested on: H.S. Sultan (multiple myeloma); experiment: Inhibition of cell proliferation, H.S. Sultan (MTT assay); format: cell-based; details: 24 h, read-out: % inhibition of cell proliferation
Protocol: as §3
(§5) Each cell type (1×10^6 cells/ml; in triplicate) was treated with indicated concentrations of merocil or merodantoin. […] The cytotoxicity in vehicle only (cremophor EL) controls was not detectable at highest dose tested.

8226 (multiple myeloma) = experiment: Inhibition of cell proliferation, 8226 (MTT assay); format: cell-based; details: 24 h, read-out: % inhibition of cell proliferation
Protocol: as §3, §5

U266B1 (myeloma) = experiment: Inhibition of cell proliferation, U266B1 (MTT assay); format: cell-based; details: 24 h, read-out: % inhibition of cell proliferation
Protocol: as §3, §5

[11] = tested on: human immunodeficiency virus (HIV-1); experiment: Inactivation of cell free human immunodeficiency virus (viability of MT-4 target cells, MTT assay); format: cell-based
Protocol: as §3
(§6) Cell free human immunodeficiency virus (HIV-1) was either left untreated or treated with indicated doses of Merocil or Merodantoin for one hour at 37° C. and added to MT-4 target cells. After 4 hour incubation at 37° C., the cells were washed three times and further incubated in drug free fresh growth medium (complete RPMI-1640) at 37° C. for 4 days. On day four, 50% of the culture supernatant was replaced with fresh growth medium to prevent cell death due to possible nutrient depletion. The viability of the cell was determined on day 11 by MTT assay. […] The viability of the MT-4 cells was not affected by Merocil or Merodantoin under the experimental conditions described above.

MT-4 cells = experiment: Effect on viability of MT-4 cells; format: cell-based; details: experimental conditions of Table 8
Protocol: as §6

certain tumor cells = experiment: Inhibition of proliferation of tumor cells (overall conclusion); format: cell-based
Text: as §3

[12] = Homo sapiens, Daudi, read-out: % Cell Kill (means ± S.D.)

## CC1(O)Oc2ccccc2N1CCCS(=O)(=O)O (centres unmarked) [Meroxazole, 2-Hydroxy-2-methyl-3-[3'-sulfopropyl]-benzoxazolin]
[1]; Homo sapiens, Daudi, 25 μg/ml, representative experiment, read-out: % Cell Kill
  cytotoxicity at 25 µg/mL: 0%
[1]; Homo sapiens, Daudi, 50 μg/ml, representative experiment, read-out: % Cell Kill
  cytotoxicity at 50 µg/mL: 0%
[1]; Homo sapiens, Daudi, 75 μg/ml, representative experiment, read-out: % Cell Kill
  cytotoxicity at 75 µg/mL: 0%
[1]; Homo sapiens, Daudi, 100 μg/ml, representative experiment, read-out: % Cell Kill
  cytotoxicity at 100 µg/mL: 0%
[1]; Homo sapiens, Daudi, 125 μg/ml, representative experiment, read-out: % Cell Kill
  cytotoxicity at 125 µg/mL: 0%
[1]; Homo sapiens, Daudi, 500 μg/ml, representative experiment, read-out: % Cell Kill
  cytotoxicity at 500 µg/mL: 32%
[1]; doses of Table 7
  cytotoxicity to Daudi cells (conclusion): not cytotoxic
[2]
  % Cell Kill: Zero

## CCCCN1C(=O)C(O)(OC)C(=O)N(CCCC)C1=S [Merocil, N,N'-Dibutyl-4,5 dihydro-5-hydroxy-5-methoxy-4-oxo-2-thiouracil]
[3]; 0.78 μg/ml
  cytotoxicity: 2.67 ± 0.8%
[3]; 1.56 μg/ml
  cytotoxicity: 5 ± 0.67%
[3]; 3.13 μg/ml
  cytotoxicity: 4 ± 0.67%
[3]; 6.25 μg/ml
  cytotoxicity: 6%
[3]; 12.5 μg/ml
  cytotoxicity: 5 ± 0.71%
[4]
  toxicity to normal human peripheral blood mononuclear cells: relatively non-toxic
[1]; 12.5 μg/ml
  growth inhibition of cultured Daudi lymphoma cells: virtually complete growth inhibition
[1]; [12]
  cytotoxicity at 0.78 µg/mL: 4.75 ± 3.2%
  cytotoxicity at 1.56 µg/mL: 16.5 ± 9.45%
  cytotoxicity at 3.13 µg/mL: 36.8 ± 16.1%
  cytotoxicity at 6.25 µg/mL: 87.2 ± 9.9%
  cytotoxicity at 12.5 µg/mL: 100%
[5]; 20 h
  inhibition at 0.78 µg/mL: 2%
  inhibition at 1.56 µg/mL: 9%
  inhibition at 3.13 µg/mL: 35%
  inhibition at 6.25 µg/mL: 36%
  inhibition at 12.5 µg/mL: 49%
[5]; 120 h
  inhibition at 0.78 µg/mL: 23%
  inhibition at 1.56 µg/mL: 26%
  inhibition at 3.13 µg/mL: 46%
  inhibition at 6.25 µg/mL: 89%
  inhibition at 12.5 µg/mL: 97%
[6]; DU-145, 20 h
  inhibition at 0.78 µg/mL: 0%
  inhibition at 1.56 µg/mL: 0%
  inhibition at 3.13 µg/mL: 0%
  inhibition at 6.25 µg/mL: 5%
  inhibition at 12.5 µg/mL: 3%
[6]; DU-145, 120 h
  inhibition at 0.78 µg/mL: 26%
  inhibition at 1.56 µg/mL: 33%
  inhibition at 3.13 µg/mL: 71%
  inhibition at 12.5 µg/mL: 93%
[7]; MS751, 20 h
  inhibition at 0.78 µg/mL: 1%
  inhibition at 1.56 µg/mL: 7%
  inhibition at 3.13 µg/mL: 12%
  inhibition at 6.25 µg/mL: 20%
  inhibition at 12.5 µg/mL: 20%
[7]; MS751, 120 h
  inhibition at 0.78 µg/mL: 10%
  inhibition at 1.56 µg/mL: 11%
  inhibition at 3.13 µg/mL: 12%
  inhibition at 6.25 µg/mL: 29%
  inhibition at 12.5 µg/mL: 89%
[8]; JEG-3, 20 h
  inhibition at 0.78 µg/mL: 0%
  inhibition at 1.56 µg/mL: 3%
  inhibition at 3.13 µg/mL: 32%
  inhibition at 6.25 µg/mL: 68%
  inhibition at 12.5 µg/mL: 86%
[8]; JEG-3, 120 h
  inhibition at 0.78 µg/mL: 8%
  inhibition at 1.56 µg/mL: 11%
  inhibition at 3.13 µg/mL: 11%
  inhibition at 6.25 µg/mL: 51%
  inhibition at 12.5 µg/mL: 86%
[9]; BT-20, 48 h
  inhibition at 0.78 µg/mL: 3%
  inhibition at 1.56 µg/mL: 0%
  inhibition at 3.13 µg/mL: 2%
  inhibition at 6.25 µg/mL: 0%
  inhibition at 12.5 µg/mL: 11%
[9]; BT-20, 96 h
  inhibition at 0.78 µg/mL: 11%
  inhibition at 1.56 µg/mL: 22%
  inhibition at 3.13 µg/mL: 41%
  inhibition at 6.25 µg/mL: 20%
  inhibition at 12.5 µg/mL: 8%
[10]
  inhibition at 0.78 µg/mL: 23%
  inhibition at 1.56 µg/mL: 28%
  inhibition at 3.13 µg/mL: 24%
  inhibition at 6.25 µg/mL: 63%
  inhibition at 12.5 µg/mL: 68%
8226 (multiple myeloma)
  inhibition at 0.78 µg/mL: 17%
  inhibition at 1.56 µg/mL: 24%
  inhibition at 3.13 µg/mL: 26%
  inhibition at 6.25 µg/mL: 25%
  inhibition at 12.5 µg/mL: 55%
U266B1 (myeloma)
  inhibition at 0.78 µg/mL: 3%
  inhibition at 1.56 µg/mL: 6%
  inhibition at 3.13 µg/mL: 21%
  inhibition at 6.25 µg/mL: 8%
  inhibition at 12.5 µg/mL: 8%
[11]; 75 μg/ml dose
  inactivation of cell free HIV: virtually complete inactivation of the virus
[11]; conclusion
  inactivating human immunodeficiency virus (HIV-1): effective
MT-4 cells
  viability of the MT-4 cells: not affected
Certain tumor cells
  inhibiting the proliferation of certain tumor cells: effective
[2]
  % Cell Kill: 28%
